Assay results taken from article PMC5513037, “Examining the influence of specificity ligands and ATP-competitive ligands on the overall effectiveness of bivalent kinase inhibitors” (Proteome Science, 2017).

Assays:
Assay in all cases: KAM-matrix competition in K562 lysate;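 on 0.001 uM KAM: median log10 fold change of treatment over DMSO control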;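 on 0.01 uM KAM: median log10 fold change of treatment over DMSO control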;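 on 0.1 uM KAM: median log10 fold change of treatment over DMSO control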;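 on 1 uM KAM: median log10 fold change of treatment over DMSO control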;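 on 10 uM KAM: median log10 fold change of treatment over DMSO control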
Assay type in all cases: binding
[1] = biological target: T1, DDR1 (Homo sapiens, UniProt Q08345)
T1 construct: endogenous in cells; host or cells: K562
Experimental: (§1) Supplement 12953_2017_125_MOESM1_ESM.zip/MS_Supp Info.xlsx, sheet "KAM" | column: 10 uM KAM; 1 uM KAM; 0.1 uM KAM; 0.01 uM KAM; 0.001 uM KAM; RB50

[2] = biological target: T2, LATS2 (Homo sapiens, UniProt Q9NRM7)
T2 construct: endogenous in cells; host or cells: K562
T2 sequence (Q9NRM7 1-1088): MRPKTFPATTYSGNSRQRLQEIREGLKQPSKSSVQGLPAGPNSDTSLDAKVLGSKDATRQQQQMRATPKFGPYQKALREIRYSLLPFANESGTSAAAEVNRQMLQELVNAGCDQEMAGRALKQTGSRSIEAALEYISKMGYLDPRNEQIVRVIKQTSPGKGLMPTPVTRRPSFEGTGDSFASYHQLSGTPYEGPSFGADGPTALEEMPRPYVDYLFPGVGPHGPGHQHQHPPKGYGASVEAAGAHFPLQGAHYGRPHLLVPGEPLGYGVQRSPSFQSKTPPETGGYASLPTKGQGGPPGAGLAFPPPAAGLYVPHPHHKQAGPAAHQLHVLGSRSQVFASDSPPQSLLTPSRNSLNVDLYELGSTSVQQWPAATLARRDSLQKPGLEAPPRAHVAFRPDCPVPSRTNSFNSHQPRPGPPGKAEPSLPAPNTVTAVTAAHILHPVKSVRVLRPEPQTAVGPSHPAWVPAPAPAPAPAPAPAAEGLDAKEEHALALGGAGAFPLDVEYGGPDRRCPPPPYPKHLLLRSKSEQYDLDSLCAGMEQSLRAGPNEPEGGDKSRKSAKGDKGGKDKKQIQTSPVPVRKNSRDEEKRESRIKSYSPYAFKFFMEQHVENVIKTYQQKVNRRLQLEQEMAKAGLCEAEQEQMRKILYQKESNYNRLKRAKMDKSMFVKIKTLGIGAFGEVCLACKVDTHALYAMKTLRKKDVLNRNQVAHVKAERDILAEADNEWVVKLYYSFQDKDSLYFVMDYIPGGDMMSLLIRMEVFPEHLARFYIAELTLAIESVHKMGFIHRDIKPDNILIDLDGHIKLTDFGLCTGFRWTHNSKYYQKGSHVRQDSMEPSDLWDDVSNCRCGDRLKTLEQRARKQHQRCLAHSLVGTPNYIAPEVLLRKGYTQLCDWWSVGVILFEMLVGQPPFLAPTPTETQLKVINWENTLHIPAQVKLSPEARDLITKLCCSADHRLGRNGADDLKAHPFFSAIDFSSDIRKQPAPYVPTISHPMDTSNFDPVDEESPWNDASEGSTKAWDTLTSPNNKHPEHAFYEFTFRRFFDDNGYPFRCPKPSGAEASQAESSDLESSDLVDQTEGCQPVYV
Experimental: as §1

[3] = biological target: T3, MAP3K4 (Homo sapiens, UniProt Q9Y6R4);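 on 0.001 uM KAM: median log10 fold change of treatment over DMSO control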;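 on 0.01 uM KAM: median log10 fold change of treatment over DMSO control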;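 on 0.1 uM KAM: median log10 fold change of treatment over DMSO control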;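 on 1 uM KAM: median log10 fold change of treatment over DMSO control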;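 on 10 uM KAM: median log10 fold change of treatment over DMSO control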
T3 construct: endogenous in cells; host or cells: K562
Experimental: as §1

[4] = biological target: T4, MAPK1 (Homo sapiens, UniProt P28482)
T4 construct: endogenous in cells; host or cells: K562
Experimental: as §1

[5] = biological target: T5, MAPK6 (Homo sapiens, UniProt Q16659)
T5 construct: endogenous in cells; host or cells: K562
Experimental: as §1

[6] = biological target: T6, RIOK2 (Homo sapiens, UniProt Q9BVS4)
T6 construct: endogenous in cells; host or cells: K562
Experimental: as §1

[7] = biological target: T7, TLK2 (Homo sapiens, UniProt Q86UE8);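 on 0.001 uM KAM: median log10 fold change of treatment over DMSO control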;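 on 0.01 uM KAM: median log10 fold change of treatment over DMSO control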;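 on 0.1 uM KAM: median log10 fold change of treatment over DMSO control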;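 on 1 uM KAM: median log10 fold change of treatment over DMSO control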;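 on 10 uM KAM: median log10 fold change of treatment over DMSO control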
T7 construct: endogenous in cells; host or cells: K562
Experimental: as §1

[8] = read-out: RB50 (the source's name)
[9] = KAM 0.001-10 uM, read-out: RB50 (the source's name)

T7 sequence (Q86UE8 whole entry): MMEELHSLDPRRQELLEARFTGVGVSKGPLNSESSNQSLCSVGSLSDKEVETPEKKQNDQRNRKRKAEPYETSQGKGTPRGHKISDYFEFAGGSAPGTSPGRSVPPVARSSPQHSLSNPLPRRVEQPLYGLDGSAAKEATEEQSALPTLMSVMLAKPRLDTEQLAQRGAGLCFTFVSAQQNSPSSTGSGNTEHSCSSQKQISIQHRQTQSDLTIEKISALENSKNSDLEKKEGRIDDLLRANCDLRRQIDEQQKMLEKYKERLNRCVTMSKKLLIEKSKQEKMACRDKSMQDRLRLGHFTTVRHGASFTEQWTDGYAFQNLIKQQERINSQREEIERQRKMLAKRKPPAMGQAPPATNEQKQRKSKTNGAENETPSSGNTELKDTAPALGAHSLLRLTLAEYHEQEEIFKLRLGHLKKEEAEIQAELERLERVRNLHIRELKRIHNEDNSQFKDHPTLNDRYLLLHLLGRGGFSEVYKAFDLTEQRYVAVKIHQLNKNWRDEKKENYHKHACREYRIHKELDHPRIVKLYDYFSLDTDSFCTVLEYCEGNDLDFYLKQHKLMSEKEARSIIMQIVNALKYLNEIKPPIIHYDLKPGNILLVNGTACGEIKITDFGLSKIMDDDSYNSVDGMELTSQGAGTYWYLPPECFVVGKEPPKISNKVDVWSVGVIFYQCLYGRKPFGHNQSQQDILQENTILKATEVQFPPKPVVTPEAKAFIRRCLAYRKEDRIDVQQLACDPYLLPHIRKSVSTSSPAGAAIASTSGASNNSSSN
T1 sequence (Q08345 19-913): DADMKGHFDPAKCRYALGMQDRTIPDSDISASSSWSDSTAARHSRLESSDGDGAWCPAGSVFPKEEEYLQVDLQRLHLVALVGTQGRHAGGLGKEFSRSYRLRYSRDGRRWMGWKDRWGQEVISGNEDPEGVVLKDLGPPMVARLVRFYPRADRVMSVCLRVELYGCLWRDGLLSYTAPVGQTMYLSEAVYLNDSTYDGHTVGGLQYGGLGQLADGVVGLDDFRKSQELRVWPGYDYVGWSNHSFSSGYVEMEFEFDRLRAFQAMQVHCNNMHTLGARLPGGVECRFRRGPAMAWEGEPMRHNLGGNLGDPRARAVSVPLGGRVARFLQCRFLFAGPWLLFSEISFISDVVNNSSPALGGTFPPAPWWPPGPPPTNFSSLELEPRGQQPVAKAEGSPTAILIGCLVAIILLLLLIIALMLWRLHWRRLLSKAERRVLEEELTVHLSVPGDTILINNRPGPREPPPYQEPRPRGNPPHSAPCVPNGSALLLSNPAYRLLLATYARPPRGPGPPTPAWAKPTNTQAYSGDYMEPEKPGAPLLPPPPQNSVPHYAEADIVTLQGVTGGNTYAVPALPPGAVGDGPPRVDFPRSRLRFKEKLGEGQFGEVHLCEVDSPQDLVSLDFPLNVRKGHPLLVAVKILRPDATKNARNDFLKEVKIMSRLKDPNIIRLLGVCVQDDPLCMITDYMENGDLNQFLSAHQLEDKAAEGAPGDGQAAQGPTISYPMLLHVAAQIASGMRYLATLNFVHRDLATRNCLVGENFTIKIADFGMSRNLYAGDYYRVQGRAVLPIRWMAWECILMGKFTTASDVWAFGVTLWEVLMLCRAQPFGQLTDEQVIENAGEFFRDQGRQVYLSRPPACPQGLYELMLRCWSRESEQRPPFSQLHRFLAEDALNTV
T6 sequence (Q9BVS4 whole entry): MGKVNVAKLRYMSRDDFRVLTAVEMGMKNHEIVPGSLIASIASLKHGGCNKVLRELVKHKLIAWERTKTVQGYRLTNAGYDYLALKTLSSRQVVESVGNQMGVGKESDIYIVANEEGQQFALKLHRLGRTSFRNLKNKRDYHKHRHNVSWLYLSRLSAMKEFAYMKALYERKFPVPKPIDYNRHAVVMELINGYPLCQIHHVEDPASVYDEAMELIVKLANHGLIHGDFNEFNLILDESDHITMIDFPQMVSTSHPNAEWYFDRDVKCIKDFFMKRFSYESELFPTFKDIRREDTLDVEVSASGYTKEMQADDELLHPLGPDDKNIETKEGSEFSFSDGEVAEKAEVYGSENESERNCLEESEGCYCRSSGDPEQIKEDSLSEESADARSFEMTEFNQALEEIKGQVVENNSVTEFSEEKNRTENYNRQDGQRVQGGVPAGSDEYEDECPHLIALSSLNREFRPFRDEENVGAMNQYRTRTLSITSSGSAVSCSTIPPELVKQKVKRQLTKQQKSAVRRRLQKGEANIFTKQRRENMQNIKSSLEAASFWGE
T3 sequence (Q9Y6R4 whole entry): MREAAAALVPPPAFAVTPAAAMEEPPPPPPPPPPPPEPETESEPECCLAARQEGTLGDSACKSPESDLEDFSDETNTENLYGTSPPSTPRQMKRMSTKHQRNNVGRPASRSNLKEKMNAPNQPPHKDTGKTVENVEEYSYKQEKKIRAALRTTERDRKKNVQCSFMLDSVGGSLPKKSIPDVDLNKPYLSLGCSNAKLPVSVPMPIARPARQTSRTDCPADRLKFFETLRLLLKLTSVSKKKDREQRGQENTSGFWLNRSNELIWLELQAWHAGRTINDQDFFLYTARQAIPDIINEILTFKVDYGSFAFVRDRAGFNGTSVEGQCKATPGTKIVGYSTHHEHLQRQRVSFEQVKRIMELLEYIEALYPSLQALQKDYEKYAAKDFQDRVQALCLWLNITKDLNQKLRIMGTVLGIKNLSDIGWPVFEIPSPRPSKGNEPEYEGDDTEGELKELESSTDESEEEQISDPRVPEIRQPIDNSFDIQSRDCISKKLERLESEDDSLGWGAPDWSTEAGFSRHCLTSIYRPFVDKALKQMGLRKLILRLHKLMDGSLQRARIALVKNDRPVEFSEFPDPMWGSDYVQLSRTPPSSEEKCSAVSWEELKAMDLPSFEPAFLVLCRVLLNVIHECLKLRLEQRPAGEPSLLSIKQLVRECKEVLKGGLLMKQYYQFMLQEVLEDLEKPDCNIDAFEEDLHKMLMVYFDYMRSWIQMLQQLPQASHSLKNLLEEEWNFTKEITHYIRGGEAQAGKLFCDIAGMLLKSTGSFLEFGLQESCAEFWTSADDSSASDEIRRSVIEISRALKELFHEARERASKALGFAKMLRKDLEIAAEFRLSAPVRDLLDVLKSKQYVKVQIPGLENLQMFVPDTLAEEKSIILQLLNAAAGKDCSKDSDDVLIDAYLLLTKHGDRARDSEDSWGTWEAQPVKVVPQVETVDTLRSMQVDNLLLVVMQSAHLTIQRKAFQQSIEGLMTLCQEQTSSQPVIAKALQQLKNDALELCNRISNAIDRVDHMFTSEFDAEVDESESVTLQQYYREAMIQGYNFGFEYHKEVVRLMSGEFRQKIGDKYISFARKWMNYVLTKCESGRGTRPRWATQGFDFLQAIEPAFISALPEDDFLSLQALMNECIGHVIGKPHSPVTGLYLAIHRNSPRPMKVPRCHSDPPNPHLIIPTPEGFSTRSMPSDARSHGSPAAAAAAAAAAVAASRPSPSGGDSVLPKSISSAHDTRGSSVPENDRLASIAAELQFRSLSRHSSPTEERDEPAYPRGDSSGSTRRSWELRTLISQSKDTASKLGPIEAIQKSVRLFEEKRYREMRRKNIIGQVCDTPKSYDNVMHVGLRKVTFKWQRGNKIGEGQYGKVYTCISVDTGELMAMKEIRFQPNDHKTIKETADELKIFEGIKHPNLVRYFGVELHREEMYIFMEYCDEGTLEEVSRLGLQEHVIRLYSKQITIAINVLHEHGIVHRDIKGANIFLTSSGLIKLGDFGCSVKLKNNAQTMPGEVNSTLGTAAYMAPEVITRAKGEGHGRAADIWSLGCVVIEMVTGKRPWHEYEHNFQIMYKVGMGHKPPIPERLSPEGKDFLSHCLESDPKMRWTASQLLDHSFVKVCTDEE
T5 sequence (Q16659 whole entry): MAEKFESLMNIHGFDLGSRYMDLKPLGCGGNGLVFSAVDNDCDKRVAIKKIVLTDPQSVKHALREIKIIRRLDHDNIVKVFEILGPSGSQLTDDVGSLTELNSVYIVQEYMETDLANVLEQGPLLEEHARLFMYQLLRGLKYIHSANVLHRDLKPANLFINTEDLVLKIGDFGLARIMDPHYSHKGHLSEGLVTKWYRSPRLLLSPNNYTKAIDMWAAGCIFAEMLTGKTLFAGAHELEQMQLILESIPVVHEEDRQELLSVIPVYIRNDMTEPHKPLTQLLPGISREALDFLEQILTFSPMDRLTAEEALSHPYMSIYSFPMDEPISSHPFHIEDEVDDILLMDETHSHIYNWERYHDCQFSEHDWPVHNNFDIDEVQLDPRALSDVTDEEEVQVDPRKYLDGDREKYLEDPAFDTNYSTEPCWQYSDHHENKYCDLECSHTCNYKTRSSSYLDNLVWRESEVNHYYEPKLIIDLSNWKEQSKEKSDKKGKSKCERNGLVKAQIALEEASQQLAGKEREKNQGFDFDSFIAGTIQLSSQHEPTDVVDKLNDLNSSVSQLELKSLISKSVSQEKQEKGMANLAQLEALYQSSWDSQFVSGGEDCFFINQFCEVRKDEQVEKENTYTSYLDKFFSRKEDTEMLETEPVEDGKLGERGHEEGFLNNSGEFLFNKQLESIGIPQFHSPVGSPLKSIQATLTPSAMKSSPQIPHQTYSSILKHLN
T4 sequence (P28482 whole entry): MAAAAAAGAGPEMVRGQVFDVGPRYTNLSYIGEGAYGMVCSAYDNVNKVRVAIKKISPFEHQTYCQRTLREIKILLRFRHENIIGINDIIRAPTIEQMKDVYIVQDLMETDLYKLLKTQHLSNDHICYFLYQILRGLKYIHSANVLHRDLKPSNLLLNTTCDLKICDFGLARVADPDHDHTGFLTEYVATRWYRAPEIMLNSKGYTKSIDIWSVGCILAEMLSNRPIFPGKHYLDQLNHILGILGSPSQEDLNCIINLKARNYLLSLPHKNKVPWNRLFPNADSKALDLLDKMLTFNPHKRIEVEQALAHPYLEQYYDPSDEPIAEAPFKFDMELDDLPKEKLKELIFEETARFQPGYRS

Q: `N#CCc1ccc(Nc2nc(NCCCN)cc(Nc3cc(C4CC4)[nH]n3)n2)cc1` [KAM] was tested. Which “median Log10 fold change” value ([1]; 0.001 uM KAM) did it give?
A: The value was -0.02436.

Q: And the “median Log10 fold change” value ([1]; 0.01 uM KAM)?
A: The value was -0.004539.

Q: And the “median Log10 fold change” value ([1]; 0.1 uM KAM)?
A: The value was -0.13.

Q: And the “median Log10 fold change” value ([1]; 1 uM KAM)?
A: The value was -0.3025.

Q: And the “median Log10 fold change” value ([1]; 10 uM KAM)?
A: Its value is -0.3889.

Q: What about the IC50 [1, 8] of the same compound?
A: The IC50 was 1330 nM.

Q: What about the “median Log10 fold change” value ([2]; 0.001 uM KAM) of the same compound?
A: The value was 0.01099.

Q: And the “median Log10 fold change” value ([2]; 0.01 uM KAM)?
A: Its value is -0.05599.

Q: What about the “median Log10 fold change” value ([2]; 0.1 uM KAM) of the same compound?
A: Its value is -0.2153.

Q: What about the “median Log10 fold change” value ([2]; 1 uM KAM) of the same compound?
A: Its value is -0.4993.

Q: What about the “median Log10 fold change” value ([2]; 10 uM KAM) of the same compound?
A: Its value is -0.5621.

Q: And the IC50 [2, 8]?
A: Its IC50 is 251 nM.

Q: What about the IC50 [3, 9] of the same compound?
A: The IC50 was > 10000 nM.

Q: What about the “0.001 uM KAM” value ([3]; relative to 0 uM KAM = 0) of the same compound?
A: The value was -0.03643.

Q: And the “0.01 uM KAM” value ([3]; relative to 0 uM KAM = 0)?
A: Its value is -0.006572.

Q: And the “0.1 uM KAM” value ([3]; relative to 0 uM KAM = 0)?
A: The value was -0.06704.

Q: What about the “1 uM KAM” value ([3]; relative to 0 uM KAM = 0) of the same compound?
A: The value was -0.09539.

Q: What about the “10 uM KAM” value ([3]; relative to 0 uM KAM = 0) of the same compound?
A: Its value is -0.1299.

Q: And the “median Log10 fold change” value ([4]; 0.001 uM KAM)?
A: Its value is -0.0422.

Q: And the “median Log10 fold change” value ([4]; 0.01 uM KAM)?
A: The value was -0.03333.

Q: What about the “median Log10 fold change” value ([4]; 0.1 uM KAM) of the same compound?
A: The value was -0.1132.

Q: What about the “median Log10 fold change” value ([4]; 1 uM KAM) of the same compound?
A: Its value is -0.2315.

Q: And the “median Log10 fold change” value ([4]; 10 uM KAM)?
A: The value was -0.3482.

Q: What about the IC50 [4, 8] of the same compound?
A: The IC50 was 3180 nM.

Q: What about the “median Log10 fold change” value ([5]; 0.001 uM KAM) of the same compound?
A: Its value is 0.01888.

Q: And the “median Log10 fold change” value ([5]; 0.01 uM KAM)?
A: The value was 0.003428.

Q: What about the “median Log10 fold change” value ([5]; 0.1 uM KAM) of the same compound?
A: The value was -0.1658.

Q: And the “median Log10 fold change” value ([5]; 1 uM KAM)?
A: Its value is -0.3554.

Q: And the “median Log10 fold change” value ([5]; 10 uM KAM)?
A: Its value is -0.4572.

Q: And the IC50 [5, 8]?
A: Its IC50 is 763 nM.

Q: And the “median Log10 fold change” value ([6]; 0.001 uM KAM)?
A: The value was -0.01457.

Q: And the “median Log10 fold change” value ([6]; 0.01 uM KAM)?
A: The value was -0.03291.

Q: And the “median Log10 fold change” value ([6]; 0.1 uM KAM)?
A: Its value is -0.138.

Q: And the “median Log10 fold change” value ([6]; 1 uM KAM)?
A: The value was -0.3574.

Q: And the “median Log10 fold change” value ([6]; 10 uM KAM)?
A: The value was -0.5027.

Q: What about the IC50 [6, 8] of the same compound?
A: The IC50 was 774 nM.

Q: And the IC50 [7, 9]?
A: The IC50 was > 10000 nM.

Q: And the “0.001 uM KAM” value ([7]; relative to 0 uM KAM = 0)?
A: Its value is -0.002954.

Q: What about the “0.01 uM KAM” value ([7]; relative to 0 uM KAM = 0) of the same compound?
A: Its value is -0.03195.

Q: And the “0.1 uM KAM” value ([7]; relative to 0 uM KAM = 0)?
A: Its value is -0.07515.

Q: What about the “1 uM KAM” value ([7]; relative to 0 uM KAM = 0) of the same compound?
A: Its value is 0.001633.

Q: And the “10 uM KAM” value ([7]; relative to 0 uM KAM = 0)?
A: Its value is -0.09222.
